{"source": "patent US20090192125A1", "about": "“Local anti-infective agent for treatment of nail fungal infections” (DermWorx Incorporated, priority 2007, published 2009)", "key": {"[1]": {"details": "for NaOM in 50 μL sample: 0.1 g nail pieces incubated 24 h at room temperature, extracted in 1 mL water for 24 h; for NaOM conc in sample: Extracting Solution", "description": "These studies measured the penetration of stock solutions of sodium omadine in human fingernails. Sodium omadine (NaOM) 98% was obtained from Acros Organics, a division of Global Fisher Scientific.\nStock Solution #1. Dissolved 100 mg of NaOM in 100 mL of purified water (1.0 mg/mL).\nStock Solution #2. Diluted 2 mL of Stock Solution #1 to 100 mL of purified water (20 μg/mL).\nStandard Solution #1 (2.50 μg/mL). Diluted 12.5 mL of Stock Solution #2 to 100 mL with purified water.\nStandard Solution #2 (5.00 μg/mL). Diluted 25 mL of Stock Solution #2 to 100 mL with purified water.\nStandard Solution #3 (7.50 μg/mL). Diluted 37.5 mL of Stock Solution #2 to 100 mL with purified water.\nStandard Solution #4 (10.0 μg/mL). Diluted 50 mL of Stock Solution #2 to 100 mL with purified water.\nStandard Solution #5 (20.0 μg/mL). No dilution was necessary, same as Stock Solution #2.\nNail clips, pooled from six human volunteers were cut into small pieces of approximately 0.5-1 mm×2-3 mm. The nail pieces, 0.1 g, were placed in each of the above solutions at room temperature and incubated for twenty-four hours. After incubation, the pieces were washed quickly three times with purified water to remove any residual solution on the nail surface. The pieces were then incubated in 1 mL of purified water for twenty-four hours at room temperature to extract the NaOM absorbed into the nail bed (“Extracting Solution”).\nA standard curve of NaOM was made by measuring the absorption at 318 nm for a 500 μL sample containing 0.25, 0.50, 0.75, 1.0, and 2.0 μg of NaOM. An aliquot (50 μL) of each Standard Solution (#1-#5) was diluted to 500 μL with 1 mM cupric chloride (CuCl2). The standard solutions were freshly prepared and incubated at room temperature for fifteen minutes prior to spectrophotometric determination.\nThe amount of NaOM in each sample of Extracting Solution was determined at 318 nm. Similarly, a 50 μL aliquot of each Extracting Solution was diluted to 500 μL with 1 mM CuCl2 and incubated at room temperature for 15 minutes. The amount of NaOM in each sample of Extracting Solution was then determined at 318 nm by spectrophotometry. The concentration of the NaOM adsorbed into the nail was determined from the standard curve."}, "[2]": {"details": "commercially available topical treatment of onychomycosis; cited from earlier work"}, "[3]": {"assay": "Penetration of hydroxypyridine-2-thione zinc (PT) into minced human fingernail clips (incubation, 30% DMSO extraction, absorption at 318 nm)", "type": "in vitro ADME", "description": "These studies measured the penetration of stock solutions of hydroxypyridine-2-thione zinc (PT) in human fingernails.\nPT was dissolved in 100% DMSO at a concentration of 2 mg/mL to form a PT stock solution. PT working solution was made by mixing 300 μL of the PT stock solution with 700 μL of water. The final concentration was 0.6 mg/mL (30% DMSO). The nail pieces (0.1 g) were incubated in 1 mL of PT working solution overnight at room temperature. After incubation, the pieces were washed with water three times in a spin column. The pieces were then incubated in 200 μL of 30% DMSO to extract PT for 4 hours at room temperature (“Extracting Solution”).\nA standard curve of PT was established by measuring the absorption at 318 nm in 500 μL samples of 30% DMSO containing 0.25, 0.5, 0.75, 1, and 2 μg PT. Standard solutions and subsequent dilutions were prepared as above. The solutions in their desired concentrations were then incubated at room temperature for 5 min prior to spectrophotometric determination."}, "[4]": {"details": "0.6 mg/mL PT working solution (30% DMSO), 0.1 g nail incubated overnight, extracted in 200 μL of 30% DMSO for 4 h"}}, "note": "Read-outs that look alike come from different tables or passages of the source."}
{"compound": "[Na+].[O-][n+]1ccccc1[S-]", "note": "[NaOM, Sodium omadine]", "values": [{"measurement": "NaOM in 0.1 g nail", "setting": "[1]; Wk Sol Conc 0.01 mg/mL", "value": 1.02, "unit": "µg"}, {"measurement": "NaOM in 50 μL sample", "setting": "[1]; Wk Sol Conc 0.01 mg/mL", "value": 0.34, "unit": "µg"}, {"measurement": "NaOM conc in sample", "setting": "[1]; Wk Sol Conc 0.01 mg/mL", "value": 7, "unit": "µg/mL"}, {"measurement": "NaOM in 0.1 g nail", "setting": "[1]; Wk Sol Conc 0.05 mg/mL", "value": 2.10, "unit": "µg"}, {"measurement": "NaOM in 50 μL sample", "setting": "[1]; Wk Sol Conc 0.05 mg/mL", "value": 0.70, "unit": "µg"}, {"measurement": "NaOM conc in sample", "setting": "[1]; Wk Sol Conc 0.05 mg/mL", "value": 14, "unit": "µg/mL"}, {"measurement": "NaOM in 0.1 g nail", "setting": "[1]; Wk Sol Conc 0.1 mg/mL", "value": 3.99, "unit": "µg"}, {"measurement": "NaOM in 50 μL sample", "setting": "[1]; Wk Sol Conc 0.1 mg/mL", "value": 1.33, "unit": "µg"}, {"measurement": "NaOM conc in sample", "setting": "[1]; Wk Sol Conc 0.1 mg/mL", "value": 27, "unit": "µg/mL"}]}
{"compound": "Cc1cc(C2CCCCC2)n(O)c(=O)c1", "note": "[Ciclopirox, ciclopirox]", "values": [{"measurement": "penetration across the layers of the nail (in words)", "setting": "[2]", "value": "poor penetration"}]}
{"compound": "[O-]n1ccccc1=S.[O-]n1ccccc1=S.[Zn+2]", "note": "[PT, hydroxypyridine-2-thione zinc]", "values": [{"measurement": "concentration of PT in Extracting Solution", "setting": "[3]; [4]", "value": 23, "unit": "µg/mL"}, {"measurement": "concentration of PT in Extracting Solution (per 50 μL aliquot)", "setting": "[3]; [4]", "value": 1.15, "unit": "μg/50 μL"}, {"measurement": "penetration into fingernails (conclusion in words)", "setting": "[3]; twelve hours or less incubation time", "value": "significant penetration"}]}
